Measurements as given in patent US12617777B2, “GPR84 antagonists and uses thereof” (Liminal BioSciences Limited, priority 2021, dated 2026).
pIC50: −log10 of the molar value.

How the values were obtained:
[1] = molecular target: T1, human GPR84 receptor (Homo sapiens, UniProt Q9NQS5); test: Gαi biosensor BRET assay in HEK293 cells (antagonism of ZQ-16); format: cell-based; conditions: for inhibition at 2 µM: HEK293, single concentration 2 μM (designated A); for pIC50: HEK293 cells, antagonism of 200 nmol/L ZQ-16; for inhibition at 10 µM: HEK293, single concentration 10 μM (designated F); for inhibition at 25 µM: HEK293, single concentration 25 μM (designated I)
T1 construct: host or cells: HEK293, transient transfection
T1 sequence (Q9NQS5 whole entry): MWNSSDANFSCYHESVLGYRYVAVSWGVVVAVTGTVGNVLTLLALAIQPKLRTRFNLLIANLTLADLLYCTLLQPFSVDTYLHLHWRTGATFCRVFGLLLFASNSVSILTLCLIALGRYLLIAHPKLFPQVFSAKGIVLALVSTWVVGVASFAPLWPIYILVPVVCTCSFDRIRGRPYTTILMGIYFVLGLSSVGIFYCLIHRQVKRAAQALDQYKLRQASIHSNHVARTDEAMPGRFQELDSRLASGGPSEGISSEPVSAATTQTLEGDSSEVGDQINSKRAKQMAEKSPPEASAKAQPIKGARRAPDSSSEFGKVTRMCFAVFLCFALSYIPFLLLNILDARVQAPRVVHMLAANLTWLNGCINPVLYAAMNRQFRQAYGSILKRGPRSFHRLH
How it was run: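 HEK293 cells transiently expressing human GPR84, Gαi2-Rluc8, GFP10-Gγ2 and Gβ1, in Tyrode's buffer pH 7.5. Compounds preincubated 5 min at 37° C, then 200 nmol/L ZQ-16 for 5 min at room temperature; coelenterazine 400A 5 μmol/L. BRET2 acceptor/donor ratio, background- and vehicle-corrected net BRET.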

[2] = system: neutrophils; test: Neutrophil migration assay (embelin as chemotactic agent, ATPlite readout); format: cell-based; conditions: for pIC50: Neutrophil, human neutrophils, embelin as chemotactic agent, read-out: Human Neutrophil migration inhibition IC50; for Human Neutrophil migration inhibition - fold potency to Control Compound: normalized to GPR84 antagonist Control Compound (average IC50 131 nM)
Method: Neutrophil migration assay. After isolation, neutrophils were resuspended in chemotaxis buffer (DMEM supplemented with 10 mM HEPES) at a concentration of 8.9×10^6 cells/ml. In a 96-well plate, 20 μl of compound solution in chemotaxis buffer is added to 180 μl of cell suspension. After incubation at 37° C. for 30 minutes, 75 μl of cell suspension is transferred in the upper chamber of a 5 μm pore size Corning HTS transwell. 235 μl of chemotaxis buffer containing the chemotactic agent (embelin) is added to the lower chamber of the transwell. After a 60-minute incubation time at 37° C. in 5%0 C02, the upper chamber of the transwell is removed and the plate is centrifuged at 1500 rpm for 6 minutes. Supermatant is removed and cells resuspended in 100 ul of PBS. ATP content was assessed using ATPlite Luminescence Assay System® according to manufacturer instructions (Perkin Elmer, Buckinghamshire, UK). Briefly, 50 μl of ATPlite buffer and 50 μl of lysis solution is added to the lower chamber of the Transwells. After incubation at room temperature, in the dark with constant agitation for 5 minutes, 150 μl of cell lysate is transferred in a 96 wells white plate and incubated for 10 minutes in the dark. Luminescence is read on a TECAN plate reader, Infinite M1000 (Tecan, Morrisville, NC).
The compound numbers correspond to the compound numbers in Table 1. […] Normalization of the results takes the donor's variation into account.

Row | Structure (SMILES) | pIC50 [1] | inhibition at 10 µM [1] [%] | also measured
1 | Cc1cc(C#CCn2cc(-c3ccc(N(C)C)cc3)nn2)ccc1-c1cn(CC2CCCCO2)nn1 (stereo not drawn) [Compound I-456] | ≥ 6.52 |  | inhibition at 2 µM [1]: > 75%; pIC50 [2]: ≥ 6.52; Human Neutrophil migration inhibition - fold potency to Control Compound [2]: A (IC50 of >1.0-fold relative to Control Compound)
2 | Cc1cc(N2CC(C)(OCc3ccccn3)C2)ccc1-c1cn(CC2CCCCO2)nn1 (stereo not drawn) [Compound I-452] | 6.00 to 6.52 | > 75 | pIC50 [2]: ≥ 6.52; Human Neutrophil migration inhibition - fold potency to Control Compound [2]: A (IC50 of >1.0-fold relative to Control Compound)
3 | Cc1cc(C#CC(C)C)ccc1-c1cn(CC2CCCCO2)nn1 (stereo not drawn) [Compound I-66] | < 5.52 |  | pIC50 [2]: 5.52 to 6.00; Human Neutrophil migration inhibition - fold potency to Control Compound [2]: C (IC50≤0.5-fold relative to Control Compound)
4 | CO[C@H](c1cn(C[C@H]2CCCCO2)nn1)c1cc(C#CC2CC2)ccc1C [Compound I-511] | ≥ 6.52 |  | inhibition at 2 µM [1]: > 75%; pIC50 [2]: ≥ 6.52; Human Neutrophil migration inhibition - fold potency to Control Compound [2]: A (IC50 of >1.0-fold relative to Control Compound)
5 | CCc1cc(C#CCNc2cccnc2)cnc1-c1cn(C[C@H]2CCCCO2)nn1 [Compound I-535] | ≥ 6.52 | > 75 | pIC50 [2]: ≥ 6.52; Human Neutrophil migration inhibition - fold potency to Control Compound [2]: B (IC50 of >0.5-≤1.0-fold relative to Control Compound)
6 | CN(C)c1cc(N2CC(C)(CO)C2)ccc1-c1cn(CC2CC(C)(C)CO2)nn1 (stereo not drawn) [Compound I-499] | 6.00 to 6.52 | > 75 | pIC50 [2]: ≥ 6.52; Human Neutrophil migration inhibition - fold potency to Control Compound [2]: A (IC50 of >1.0-fold relative to Control Compound)
7 | Cc1cc(C#CCNc2ccccc2)ccc1-c1cn(C[C@@H]2CCCCO2)nn1 (stereo in doubt) [Compound I-144] | 5.52 to 6.00 | ≤ 25 | pIC50 [2]: 5.52 to 6.00; Human Neutrophil migration inhibition - fold potency to Control Compound [2]: C (IC50≤0.5-fold relative to Control Compound)
8 | CC(C)Oc1cc(C#CC2CC2)cnc1-c1cn(CC2CCCCO2)nn1 (stereo not drawn) [Compound I-478] | ≥ 6.52 | > 75 | pIC50 [2]: ≥ 6.52; Human Neutrophil migration inhibition - fold potency to Control Compound [2]: B (IC50 of >0.5-≤1.0-fold relative to Control Compound)
9 | CN(CC#Cc1cnc(-c2cn(CC3OCC(C)(C)CO3)nn2)c(OC2CC2)c1)C1CC1 [Compound I-858] |  |  | inhibition at 2 µM [1]: > 75%
10 | CCc1cc(C#CCN(C)C)ccc1-c1cn(CC2OCC(C)(C)CO2)nn1 [Compound I-852] |  |  | inhibition at 2 µM [1]: > 75%
11 | CC1(C)CN(c2ccc(-c3cn(C[C@H]4CCCCO4)nn3)c(OC3CC3)c2)C1 [Compound I-749] | ≥ 6.52 | 50 to 75 | inhibition at 2 µM [1]: > 75%
12 | CN(C)c1cc(C#CC2CC2)cnc1-c1cn(CC2CCCCO2)nn1 (stereo not drawn) [Compound I-518] | 5.52 to 6.00 | > 75 | 
13 | C(#CC1CC1)c1cccc(-c2cnn(CC3CCCCO3)c2)c1 (stereo not drawn) [Compound I-320] |  |  | inhibition at 25 µM [1]: ≤ 25%
14 | Cc1ccc(-c2ccc(-c3cn(CC4CCCCO4)nn3)c(C)c2)cn1 (stereo not drawn) [Compound I-36] | < 5.52 |  | inhibition at 25 µM [1]: 25 to 50%
15 | Cc1ccc(-c2ccc(-c3cn(C[C@H]4COc5ccccc5O4)nn3)cc2)cn1 [Compound I-26] |  |  | inhibition at 25 µM [1]: ≤ 25%
16 | Cc1cc(N2CC3(CNC3)C2)ccc1-c1cn(CC2CCCCO2)nn1 (stereo not drawn) [Compound I-182] |  | ≤ 25 | 
17 | Cc1cc(N2CCN(CC3CC4CCN3CC4)CC2)ccc1-c1cn(CC2CCCCO2)nn1 (stereo not drawn) [Compound I-657] |  | ≤ 25 | 
18 | CNC(C)(C)COc1ccc(-c2cn(CC3CCCCO3)nn2)c(C)c1 (stereo not drawn) [Compound I-288] |  | 25 to 50 | 
19 | C(#CC1CC1)c1ccc2c(c1)CCc1c-2nnn1CC1CCCCO1 (stereo not drawn) [Compound I-303, 7-(cyclopropylethynyl)-3-((tetrahydro-2H-pyran-2-yl)methyl)-4,5-dihydro-3H-naphtho[1,2-d][1,2,3]triazole] |  | ≤ 25 | 
20 | Cc1cc(N2CC(F)(F)C2)ccc1-c1cn(CC2CCCCO2)nn1 (stereo not drawn) [Compound I-158] |  | ≤ 25 | 
21 | Cc1ccc(N2CC(C)(C)C2)cc1Cc1cn(CC2CCCCO2)nn1 (stereo not drawn) [Compound I-443] |  | ≤ 25 | 
22 | COCC#Cc1cnc(-c2cn(CC3OCC(C)(C)CO3)cn2)c(OC2CC2)c1 [Compound I-848] |  | ≤ 25 | 
23 | Cc1ccc(C#CC2CC2)cc1C(CC1CC1)c1cn(CC2OCC(C)(C)CO2)nn1 (stereo not drawn) [Compound I-714] | 5.52 to 6.00 |  | inhibition at 2 µM [1]: > 75%
24 | Cc1cc(N2CC(C)(C(=O)Nc3ccccc3)C2)ccc1-c1cn(CC2CCCCO2)nn1 (stereo not drawn) [Compound I-410] |  |  | inhibition at 2 µM [1]: 25 to 50%
25 | Cc1cc(C#CCNC(=O)C(C)(C)C)ccc1-c1cn(CC2CCCCO2)nn1 (stereo not drawn) [Compound I-208] |  | 25 to 50 | 
26 | CC(=O)N(c1cn(CC2OCC(C)(C)CO2)nn1)c1cc(C#CC2CC2)ccc1C [Compound I-792, N-(5-(cyclopropylethynyl)-2-methylphenyl)-N-(1-((5,5-dimethyl-1,3-dioxan-2-yl)methyl)-1H-1,2,3-triazol-4-yl)acetamide] | 6.00 to 6.52 |  | inhibition at 2 µM [1]: > 75%
27 | Cc1cc(C#CC2CC2)ccc1-c1cn(CC23CC4CC(CC(C4)O2)C3)nn1 [Compound I-523] |  |  | inhibition at 2 µM [1]: ≤ 25%
28 | Cc1cc(N2CC(C)(CNS(C)(=O)=O)C2)ccc1-c1cn(CC2CCCCO2)nn1 (stereo not drawn) [Compound I-448] |  | 50 to 75 | 
29 | COc1ccc(Cl)c(N(C)c2cn(CC3OCC(C)(C)CO3)nn2)c1 [Compound I-813] |  | > 75 | 

Continued, in another order:

Row | pIC50 [1] | inhibition at 10 µM [1] [%] | Structure (SMILES) | also measured
30 | 6.00 to 6.52 |  | CCc1cc(C#CCNc2ccccc2)cnc1-c1cn(CC2CC(C)(C)CO2)nn1 (stereo not drawn) [Compound I-474] | inhibition at 2 µM [1]: > 75%; pIC50 [2]: ≥ 6.52; Human Neutrophil migration inhibition - fold potency to Control Compound [2]: A (IC50 of >1.0-fold relative to Control Compound)
31 | < 5.52 |  | Cc1cc(C#CC(C)(C)O)ccc1-c1cn(CC2CCCCO2)nn1 (stereo not drawn) [Compound I-79] | inhibition at 15 µM ([1]; HEK293, single concentration 15 μM (designated H)): > 75%; pIC50 [2]: 6.00 to 6.52; Human Neutrophil migration inhibition - fold potency to Control Compound [2]: C (IC50≤0.5-fold relative to Control Compound)
32 | 5.52 to 6.00 | > 75 | CC(C)c1cc(C#CCN2CC(C)(C)C2)cnc1-c1cn(CC2CCCCO2)nn1 (stereo not drawn) [Compound I-462] | pIC50 [2]: ≥ 6.52; Human Neutrophil migration inhibition - fold potency to Control Compound [2]: C (IC50≤0.5-fold relative to Control Compound)
33 | ≥ 6.52 | > 75 | CN(C)c1cc(N2CC(C)(C)C2)ccc1-c1cn(CC2OCC(C)(C)CO2)nn1 [Compound I-585] | pIC50 [2]: ≥ 6.52; Human Neutrophil migration inhibition - fold potency to Control Compound [2]: A (IC50 of >1.0-fold relative to Control Compound)
34 | ≥ 6.52 | > 75 | Cc1cc(N2CCN(Cc3ccccn3)CC2)ccc1-c1cn(CC2CC(C)(C)CO2)nn1 (stereo not drawn) [Compound I-530] | pIC50 [2]: ≥ 6.52; Human Neutrophil migration inhibition - fold potency to Control Compound [2]: A (IC50 of >1.0-fold relative to Control Compound)
35 |  | ≤ 25 | C(#CC1CC1)c1ccc2c(c1)CCc1cn(CC3CCCCO3)nc1-2 (stereo not drawn) [Compound I-328] | 
36 |  | 50 to 75 | N#Cc1cc(C#CC2CC2)ccc1-c1cn(CC2CCCCO2)nn1 (stereo not drawn) [Compound I-133] | 
37 |  | 25 to 50 | Cc1cc(CO)ccc1-c1cn(CC2CCCCO2)nn1 (stereo not drawn) [Compound I-468] | 
38 | 5.52 to 6.00 |  | CN(C)c1cc(C#CCNc2ccccc2)ccc1-c1cn(CC2CCCCO2)nn1 (stereo not drawn) [Compound I-203] | inhibition at 2 µM [1]: > 75%
39 |  | > 75 | Cc1cc(N2CC(C)(C)C2)c(Cl)cc1-c1cn(C[C@H]2CCCCO2)nn1 [Compound I-421] | 
40 |  | ≤ 25 | COC(C)(C)Cn1cc(-c2ccc(C#CCNc3ccccc3)cc2C)nn1 [Compound I-163] | 
41 |  | ≤ 25 | Cc1cc(C2CCN(Cc3ccccn3)CC2)cnc1-c1cn(CC2CCCCO2)nn1 (stereo not drawn) [Compound I-482] | 
42 |  | ≤ 25 | Cc1cc(N2CCC3(CC2)CN(Cc2ccccn2)C3)ccc1-c1cn(CC2CCCCO2)nn1 (stereo not drawn) [Compound I-521] | 
43 | 6.00 to 6.52 | > 75 | Cc1cc(C#CCN(C)C2CC2)ccc1-c1cn(CC2OCC(C)(C)CO2)nn1 [Compound I-698] | 
44 | 6.00 to 6.52 | > 75 | CC(C)OCC1(C)CN(c2ccc(-c3cn(CC4OCC(C)(C)CO4)nn3)c(N(C)C)c2)C1 [Compound I-754] | 
45 |  | 25 to 50 | CC(c1cncc(C#CC2CC2)c1)c1cn(CC2CCCCO2)nn1 (stereo not drawn) [Compound I-426] | 
46 |  | 50 to 75 | Cc1cc(N2CC(C(C)(C)O)C2)ccc1-c1cn(CC2CCCCO2)nn1 (stereo not drawn) [Compound I-477] | 
47 |  | ≤ 25 | Cc1cc(NC(=O)c2ccccc2)ccc1-c1cn(CC2CCCCO2)nn1 (stereo not drawn) [Compound I-483] | 
48 |  | 25 to 50 | Cc1cc(C#CC2CC2)ccc1-c1ncn(CC2CCCCO2)c1C (stereo not drawn) [Compound I-339] | 
49 | 6.00 to 6.52 |  | Cc1ccc(C#CC2CC2)cc1Oc1cn(CC2OCC(C)(C)CO2)nn1 [Compound I-773] | 
